Measurements as given in patent US20260356819A1, “OXOISOINDOLINYL-SUBSTITUTED […] DERIVATIVE AND USE THEREOF” (GLUETACS THERAPEUTICS (SHANGHAI) CO., LTD., priority 2023, published 2026).
pIC50: −log10 of the molar value.

Tests used:
MM.1S cells = test: Inhibition of proliferation of multiple myeloma cells MM.1S (cell viability assay, 96 h); format: cell-based, human; settings: read-out: inhibitory activity (IC50) against tumor cells proliferation, MM.1S
MGC803 cells = test: Inhibition of proliferation of gastric cancer cells MGC803 (cell viability assay, 96 h); format: cell-based, human; settings: read-out: inhibitory activity (IC50) against tumor cells proliferation, MGC803
Method: (§1) The tumor cells used herein were cultured in a cell culture medium listed in table 2 at 37 °C in an incubator with 5% CO2. Prior to experimentation, all cell lines used were correctly identified by STR profiling, and tested negative for Mycoplasma contamination using a Mycoplasma detection kit through routine screenings.
(§2) The IC50 values of the compounds of the present disclosure (including the compounds in Table 1, and Examples 1-498) were determined using the CellTiter-Meiluncell Luminescent Cell Viability Assay Kit from Dalian Meilun Biotech Co., Ltd. The detailed procedure is as follows: Tumor cells were seeded in 96-well cell culture plates at the densities specified in Table 3. On the following day, the test compounds of the present disclosure were subjected to serial dilution. […] Subsequently, 0.5 μL of the test compound dilution was transferred into the 96-well plate containing the cells, with each well containing 100 μL of cell culture medium. […] Into the 96-well plate, the diluted test compounds and corresponding detection reagents were added, resulting in final test compound concentrations of 500 nM and 10 nM, respectively. The experimental procedure is described below using the diluted 2 μM test compound as an example.
(§3) 0.5 μL of the aforementioned diluted compound of the present disclosure (including the compounds in Table 1, and Examples 1-498) was added to the seeded cells in 100 μL of medium, yielding a final test compound concentration of 10 nM. After the cells were treated with the compounds of the present disclosure for a specified period, the cell viability assay reagent was added to the culture medium according to the kit's instructions to determine cell viability. […] All controls were treated using the same procedure as the compounds of the present disclosure. The growth inhibition curves for the compounds of the present disclosure were plotted using Prism GraphPad software, and the IC50 values were calculated therefrom.

WEE1 = molecular target: T1, WEE1 (Homo sapiens, UniProt P30291+Q96SW2); test: Western blot degradation of WEE1 in hPBMCs (24 h); format: cell-based; settings: compounds at 50 nM and 500 nM
T1 construct: The supernatant was aspirated as the extracted total cell protein; endogenous in cells; host or cells: human peripheral blood mononuclear cells (hPBMCs)
T1 sequence (P30291 whole entry): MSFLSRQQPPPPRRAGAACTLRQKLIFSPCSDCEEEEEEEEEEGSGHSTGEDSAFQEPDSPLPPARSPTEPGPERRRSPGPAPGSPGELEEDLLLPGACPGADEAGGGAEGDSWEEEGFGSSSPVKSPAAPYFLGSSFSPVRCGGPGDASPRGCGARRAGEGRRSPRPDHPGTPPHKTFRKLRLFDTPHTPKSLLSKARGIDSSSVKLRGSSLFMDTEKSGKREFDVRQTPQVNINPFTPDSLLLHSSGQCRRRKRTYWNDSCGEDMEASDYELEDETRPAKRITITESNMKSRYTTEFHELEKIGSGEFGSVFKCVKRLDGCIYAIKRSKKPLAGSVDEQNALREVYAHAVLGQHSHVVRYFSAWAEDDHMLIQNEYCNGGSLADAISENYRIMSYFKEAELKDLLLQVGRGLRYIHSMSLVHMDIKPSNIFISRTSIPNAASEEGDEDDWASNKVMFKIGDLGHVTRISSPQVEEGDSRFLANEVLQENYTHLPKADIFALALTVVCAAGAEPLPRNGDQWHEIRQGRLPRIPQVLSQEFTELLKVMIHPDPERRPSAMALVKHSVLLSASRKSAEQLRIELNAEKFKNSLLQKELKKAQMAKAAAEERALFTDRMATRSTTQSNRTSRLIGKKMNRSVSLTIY
T1 sequence (Q96SW2 whole entry): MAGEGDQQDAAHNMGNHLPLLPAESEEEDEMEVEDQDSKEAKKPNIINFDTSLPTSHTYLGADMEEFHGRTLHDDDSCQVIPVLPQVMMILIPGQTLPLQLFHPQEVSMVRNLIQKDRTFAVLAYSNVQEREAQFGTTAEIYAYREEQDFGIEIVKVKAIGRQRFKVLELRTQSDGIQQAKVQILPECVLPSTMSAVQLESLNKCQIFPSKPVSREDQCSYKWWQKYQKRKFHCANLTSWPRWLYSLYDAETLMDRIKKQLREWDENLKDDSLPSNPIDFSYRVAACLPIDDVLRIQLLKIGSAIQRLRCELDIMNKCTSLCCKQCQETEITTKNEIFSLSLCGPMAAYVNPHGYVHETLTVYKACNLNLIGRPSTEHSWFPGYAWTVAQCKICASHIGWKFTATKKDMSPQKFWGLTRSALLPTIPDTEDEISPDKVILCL
T1 sequence (Q16531 whole entry partner): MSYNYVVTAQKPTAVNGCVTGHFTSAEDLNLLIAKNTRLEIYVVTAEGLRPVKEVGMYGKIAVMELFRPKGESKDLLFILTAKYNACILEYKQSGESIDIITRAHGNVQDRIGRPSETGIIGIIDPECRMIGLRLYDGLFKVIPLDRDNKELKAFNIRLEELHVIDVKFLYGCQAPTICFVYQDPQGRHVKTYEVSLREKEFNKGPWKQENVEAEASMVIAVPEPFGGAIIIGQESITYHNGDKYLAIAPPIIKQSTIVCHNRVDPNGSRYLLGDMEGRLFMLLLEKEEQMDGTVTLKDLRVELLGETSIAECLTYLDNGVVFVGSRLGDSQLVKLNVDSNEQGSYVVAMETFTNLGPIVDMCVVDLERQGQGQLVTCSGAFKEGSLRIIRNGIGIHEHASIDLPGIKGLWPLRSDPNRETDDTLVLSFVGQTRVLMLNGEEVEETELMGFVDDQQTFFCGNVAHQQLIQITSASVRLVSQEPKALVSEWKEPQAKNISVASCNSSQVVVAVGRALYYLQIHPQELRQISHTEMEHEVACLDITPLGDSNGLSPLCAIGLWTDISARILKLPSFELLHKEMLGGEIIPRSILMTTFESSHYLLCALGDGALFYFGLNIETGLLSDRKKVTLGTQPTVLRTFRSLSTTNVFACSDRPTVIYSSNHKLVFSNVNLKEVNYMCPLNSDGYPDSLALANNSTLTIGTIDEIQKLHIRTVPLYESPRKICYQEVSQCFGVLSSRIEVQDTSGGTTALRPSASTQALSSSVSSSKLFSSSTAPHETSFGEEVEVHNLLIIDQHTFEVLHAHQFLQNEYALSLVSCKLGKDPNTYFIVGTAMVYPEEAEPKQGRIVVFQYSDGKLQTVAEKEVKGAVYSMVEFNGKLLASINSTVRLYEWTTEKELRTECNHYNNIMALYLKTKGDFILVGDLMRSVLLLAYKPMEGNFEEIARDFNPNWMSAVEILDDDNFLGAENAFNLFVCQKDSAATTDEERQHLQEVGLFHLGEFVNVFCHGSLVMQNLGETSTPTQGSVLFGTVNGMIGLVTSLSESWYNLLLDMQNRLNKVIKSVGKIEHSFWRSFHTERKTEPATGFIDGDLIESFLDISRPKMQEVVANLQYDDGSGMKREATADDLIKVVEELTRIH
Procedure, shortened: (§4)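 Degradation in primary human PBMCs after 24 h compound exposure at 50 and 500 nM. Western blot band intensities, normalised to an internal control protein, expressed as % protein remaining relative to DMSO.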

IKZF1 = molecular target: T2, IKZF1 (Homo sapiens, UniProt Q13422+Q96SW2); test: Western blot degradation of IKZF1 in hPBMCs (24 h); format: cell-based; settings: compounds at 50 nM and 500 nM
T2 construct: The supernatant was aspirated as the extracted total cell protein; endogenous in cells; host or cells: human peripheral blood mononuclear cells (hPBMCs)
T2 sequence (Q13422 whole entry): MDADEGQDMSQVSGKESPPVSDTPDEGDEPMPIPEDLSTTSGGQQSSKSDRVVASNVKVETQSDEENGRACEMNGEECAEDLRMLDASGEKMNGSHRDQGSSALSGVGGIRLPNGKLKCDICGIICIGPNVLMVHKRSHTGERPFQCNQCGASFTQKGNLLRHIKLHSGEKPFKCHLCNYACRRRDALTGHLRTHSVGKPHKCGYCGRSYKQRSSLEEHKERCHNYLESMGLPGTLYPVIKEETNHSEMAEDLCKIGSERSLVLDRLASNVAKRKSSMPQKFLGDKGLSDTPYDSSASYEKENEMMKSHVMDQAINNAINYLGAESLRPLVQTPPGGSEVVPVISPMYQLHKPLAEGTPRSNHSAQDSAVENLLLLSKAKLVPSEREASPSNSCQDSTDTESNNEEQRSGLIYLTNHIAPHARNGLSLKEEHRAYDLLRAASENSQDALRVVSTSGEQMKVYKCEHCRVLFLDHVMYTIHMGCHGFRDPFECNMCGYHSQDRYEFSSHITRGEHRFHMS
T2 sequence (Q96SW2 whole entry): as the sequence (Q96SW2 whole entry) above
T2 sequence (Q16531 whole entry partner): as the sequence (Q16531 whole entry partner) above
Procedure, shortened: as §4

IKZF2 = molecular target: T3, IKZF2 (Homo sapiens, UniProt Q96SW2+Q9UKS7); test: Western blot degradation of IKZF2 in hPBMCs (24 h); format: cell-based; settings: compounds at 50 nM and 500 nM
T3 construct: The supernatant was aspirated as the extracted total cell protein; endogenous in cells; host or cells: human peripheral blood mononuclear cells (hPBMCs)
T3 sequence (Q9UKS7 whole entry): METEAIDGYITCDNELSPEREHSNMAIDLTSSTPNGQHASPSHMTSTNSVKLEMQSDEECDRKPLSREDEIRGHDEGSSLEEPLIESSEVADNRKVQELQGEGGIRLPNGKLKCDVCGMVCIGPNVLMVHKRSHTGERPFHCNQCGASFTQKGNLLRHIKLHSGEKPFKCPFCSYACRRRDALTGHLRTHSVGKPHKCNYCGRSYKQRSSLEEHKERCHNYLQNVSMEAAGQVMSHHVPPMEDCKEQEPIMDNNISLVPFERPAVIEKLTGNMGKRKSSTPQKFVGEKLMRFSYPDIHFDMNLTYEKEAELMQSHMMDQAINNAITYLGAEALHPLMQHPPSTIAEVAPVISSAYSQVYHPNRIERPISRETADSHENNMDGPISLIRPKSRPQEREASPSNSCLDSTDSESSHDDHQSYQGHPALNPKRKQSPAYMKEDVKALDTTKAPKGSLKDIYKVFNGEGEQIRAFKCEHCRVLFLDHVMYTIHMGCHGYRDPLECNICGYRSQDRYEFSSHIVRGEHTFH
T3 sequence (Q96SW2 whole entry): as the sequence (Q96SW2 whole entry) above
T3 sequence (Q16531 whole entry partner): as the sequence (Q16531 whole entry partner) above
Procedure, shortened: as §4

IKZF3 = molecular target: T4, IKZF3 (Homo sapiens, UniProt Q96SW2+Q9UKT9); test: Western blot degradation of IKZF3 in hPBMCs (24 h); format: cell-based; settings: compounds at 50 nM and 500 nM
T4 construct: The supernatant was aspirated as the extracted total cell protein; endogenous in cells; host or cells: human peripheral blood mononuclear cells (hPBMCs)
T4 sequence (Q9UKT9 whole entry): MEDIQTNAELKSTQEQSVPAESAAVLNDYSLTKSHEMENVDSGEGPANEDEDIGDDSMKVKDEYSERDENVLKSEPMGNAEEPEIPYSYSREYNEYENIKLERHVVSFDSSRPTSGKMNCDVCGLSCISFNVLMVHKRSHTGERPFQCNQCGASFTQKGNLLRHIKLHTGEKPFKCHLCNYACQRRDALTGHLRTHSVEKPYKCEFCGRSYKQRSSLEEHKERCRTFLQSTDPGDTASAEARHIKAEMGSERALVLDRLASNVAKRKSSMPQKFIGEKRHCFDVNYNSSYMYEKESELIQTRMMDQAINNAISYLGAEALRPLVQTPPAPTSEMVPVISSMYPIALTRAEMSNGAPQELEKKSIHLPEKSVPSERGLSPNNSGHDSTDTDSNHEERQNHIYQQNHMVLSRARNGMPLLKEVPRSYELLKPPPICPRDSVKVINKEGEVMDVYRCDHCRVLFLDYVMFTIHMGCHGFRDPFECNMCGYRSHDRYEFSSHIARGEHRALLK
T4 sequence (Q96SW2 whole entry): as the sequence (Q96SW2 whole entry) above
T4 sequence (Q16531 whole entry partner): as the sequence (Q16531 whole entry partner) above
Procedure, shortened: as §4

CK1α = molecular target: T5, CK1α (Homo sapiens, UniProt P48729+Q96SW2); test: Western blot degradation of CK1α in hPBMCs (24 h); format: cell-based; settings: compounds at 50 nM and 500 nM
T5 construct: The supernatant was aspirated as the extracted total cell protein; endogenous in cells; host or cells: human peripheral blood mononuclear cells (hPBMCs)
Procedure, shortened: as §4

GSPT1 = molecular target: T6, GSPT1 (Homo sapiens, UniProt P15170+Q96SW2); test: Western blot degradation of GSPT1 in hPBMCs (24 h); format: cell-based; settings: compounds at 50 nM and 500 nM
T6 construct: The supernatant was aspirated as the extracted total cell protein; endogenous in cells; host or cells: human peripheral blood mononuclear cells (hPBMCs)
T6 sequence (P15170 whole entry): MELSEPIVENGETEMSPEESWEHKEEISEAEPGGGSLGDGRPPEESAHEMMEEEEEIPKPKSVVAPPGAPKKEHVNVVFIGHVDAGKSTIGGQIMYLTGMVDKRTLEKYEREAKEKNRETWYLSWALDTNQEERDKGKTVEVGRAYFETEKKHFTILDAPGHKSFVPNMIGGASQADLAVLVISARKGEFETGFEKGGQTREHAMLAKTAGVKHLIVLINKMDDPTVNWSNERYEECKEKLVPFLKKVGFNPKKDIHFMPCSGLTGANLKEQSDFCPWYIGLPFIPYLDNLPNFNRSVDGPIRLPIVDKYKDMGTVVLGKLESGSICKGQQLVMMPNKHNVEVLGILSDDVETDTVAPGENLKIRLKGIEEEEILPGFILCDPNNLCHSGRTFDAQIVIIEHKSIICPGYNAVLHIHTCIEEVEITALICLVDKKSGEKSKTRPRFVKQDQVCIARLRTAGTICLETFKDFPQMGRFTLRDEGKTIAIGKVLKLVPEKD
T6 sequence (Q96SW2 whole entry): as the sequence (Q96SW2 whole entry) above
T6 sequence (Q16531 whole entry partner): as the sequence (Q16531 whole entry partner) above
Procedure, shortened: as §4

Jurkat cells = test: Inhibition of proliferation of T lymphocytic leukemia cells Jurkat (cell viability assay, 96 h); format: cell-based, human; settings: read-out: inhibitory activity (IC50) against tumor cells proliferation, Jurkat
MV-4-11 cells = test: Inhibition of proliferation of myeloid monocytic leukemia cells MV-4-11 (cell viability assay, 96 h); format: cell-based, human; settings: read-out: inhibitory activity (IC50) against tumor cells proliferation, MV-4-11
Method: as §1, §2, §3

Row | Structure (SMILES) | pIC50 (MM.1S cells) | pIC50 (MGC803 cells) | WEE1 substrate protein remaining % (WEE1) | IKZF1 substrate protein remaining % (IKZF1) | IKZF2 substrate protein remaining % (IKZF2) | IKZF3 substrate protein remaining % (IKZF3) | CK1α substrate protein remaining % (CK1α) | GSPT1 substrate protein remaining % (GSPT1) | pIC50 (Jurkat cells) | pIC50 (MV-4-11 cells)
1 | O=C1CCN(N2Cc3cc(CN4CCN(c5cccc(Cl)c5Cl)CC4)ccc3C2=O)C(=O)N1 [GT-04853, 1-(5-((4-(2,3-dichlorophenyl)piperazin-1-yl)methyl)-1-oxoisoindolin-2-yl)dihydropyrimidine-2,4(1H,3H)-dione] | 6.52 to 7.00 | 6.00 to 6.30 | A (0% ≤ substrate protein remaining % ≤80%) | A (0% ≤ substrate protein remaining % ≤80%) | A (0% ≤ substrate protein remaining % ≤80%) | B (80%< substrate protein remaining % ≤100%) | B (80%< substrate protein remaining % ≤100%) | A (0% ≤ substrate protein remaining % ≤80%) | – | –
2 | O=C1CCN(N2Cc3cc(CN4CCN(c5cccc6sccc56)CC4)ccc3C2=O)C(=O)N1 [GT-04866, 1-(5-((4-(benzo[b]thiophen-4-yl)piperazin-1-yl)methyl)-1-oxoisoindolin-2-yl)dihydropyrimidine-2,4(1H,3H)-dione] | 6.52 to 7.00 | 6.30 to 6.52 | A (0% ≤ substrate protein remaining % ≤80%) | A (0% ≤ substrate protein remaining % ≤80%) | B (80%< substrate protein remaining % ≤100%) | B (80%< substrate protein remaining % ≤100%) | B (80%< substrate protein remaining % ≤100%) | A (0% ≤ substrate protein remaining % ≤80%) | 6.30 to 6.52 | –
3 | O=C1CCN(N2Cc3cc(CN4CC=C(c5cccs5)CC4)ccc3C2=O)C(=O)N1 [GT-04868, 1-(1-oxo-5-((4-(thiophen-2-yl)-3,6-dihydropyridin-1(2H)-yl)methyl)isoindolin-2-yl)dihydropyrimidine-2,4(1H,3H)-dione] | 6.52 to 7.00 | 6.30 to 6.52 | A (0% ≤ substrate protein remaining % ≤80%) | A (0% ≤ substrate protein remaining % ≤80%) | B (80%< substrate protein remaining % ≤100%) | B (80%< substrate protein remaining % ≤100%) | A (0% ≤ substrate protein remaining % ≤80%) | A (0% ≤ substrate protein remaining % ≤80%) | 6.30 to 6.52 | –
4 | Cc1ccc(C2=CCN(Cc3ccc4c(c3)CN(N3CCC(=O)NC3=O)C4=O)CC2)s1 [GT-04869, 1-(5-((4-(5-methylthiophen-2-yl)-3,6-dihydropyridin-1(2H)-yl)methyl)-1-oxoisoindolin-2-yl)dihydropyrimidine-2,4(1H,3H)-dione] | 7.00 to 7.30 | 6.30 to 6.52 | A (0% ≤ substrate protein remaining % ≤80%) | A (0% ≤ substrate protein remaining % ≤80%) | A (0% ≤ substrate protein remaining % ≤80%) | A (0% ≤ substrate protein remaining % ≤80%) | B (80%< substrate protein remaining % ≤100%) | A (0% ≤ substrate protein remaining % ≤80%) | 6.30 to 6.52 | –
5 | Cc1ccsc1C1=CCN(Cc2ccc3c(c2)CN(N2CCC(=O)NC2=O)C3=O)CC1 [GT-04870, 1-(5-((4-(3-methylthiophen-2-yl)-3,6-dihydropyridin-1(2H)-yl)methyl)-1-oxoisoindolin-2-yl)dihydropyrimidine-2,4(1H,3H)-dione] | 7.00 to 7.30 | 6.52 to 7.00 | A (0% ≤ substrate protein remaining % ≤80%) | A (0% ≤ substrate protein remaining % ≤80%) | A (0% ≤ substrate protein remaining % ≤80%) | A (0% ≤ substrate protein remaining % ≤80%) | B (80%< substrate protein remaining % ≤100%) | A (0% ≤ substrate protein remaining % ≤80%) | 6.52 to 7.00 | –
6 | O=C1CCN(N2Cc3cc(CN4CC=C(c5ccsc5)CC4)ccc3C2=O)C(=O)N1 [GT-04871, 1-(1-oxo-5-((4-(thiophen-3-yl)-3,6-dihydropyridin-1(2H)-yl)methyl)isoindolin-2-yl)dihydropyrimidine-2,4(1H,3H)-dione] | 6.52 to 7.00 | 6.30 to 6.52 | A (0% ≤ substrate protein remaining % ≤80%) | A (0% ≤ substrate protein remaining % ≤80%) | B (80%< substrate protein remaining % ≤100%) | B (80%< substrate protein remaining % ≤100%) | B (80%< substrate protein remaining % ≤100%) | A (0% ≤ substrate protein remaining % ≤80%) | 6.30 to 6.52 | –
7 | Cc1cscc1C1=CCN(Cc2ccc3c(c2)CN(N2CCC(=O)NC2=O)C3=O)CC1 [GT-04872, 1-(5-((4-(4-methylthiophen-3-yl)-3,6-dihydropyridin-1(2H)-yl)methyl)-1-oxoisoindolin-2-yl)dihydropyrimidine-2,4(1H,3H)-dione] | 7.30 to 8.00 | 6.52 to 7.00 | A (0% ≤ substrate protein remaining % ≤80%) | A (0% ≤ substrate protein remaining % ≤80%) | B (80%< substrate protein remaining % ≤100%) | B (80%< substrate protein remaining % ≤100%) | B (80%< substrate protein remaining % ≤100%) | A (0% ≤ substrate protein remaining % ≤80%) | 6.52 to 7.00 | –
8 | Cc1cc(C2=CCN(Cc3ccc4c(c3)CN(N3CCC(=O)NC3=O)C4=O)CC2)cs1 [GT-04873, 1-(5-((4-(5-methylthiophen-3-yl)-3,6-dihydropyridin-1(2H)-yl)methyl)-1-oxoisoindolin-2-yl)dihydropyrimidine-2,4(1H,3H)-dione] | 7.00 to 7.30 | 6.52 to 7.00 | A (0% ≤ substrate protein remaining % ≤80%) | A (0% ≤ substrate protein remaining % ≤80%) | B (80%< substrate protein remaining % ≤100%) | A (0% ≤ substrate protein remaining % ≤80%) | B (80%< substrate protein remaining % ≤100%) | A (0% ≤ substrate protein remaining % ≤80%) | 6.52 to 7.00 | –
9 | O=C1CCN(N2Cc3cc(CN4CCN(C(c5ccccc5)c5ccccn5)CC4)ccc3C2=O)C(=O)N1 (stereo not drawn) [GT-04890, 1-(1-oxo-5-((4-(phenyl(pyridin-2-yl)methyl)piperazin-1-yl)methyl)isoindolin-2-yl)dihydropyrimidine-2,4(1H,3H)-dione] | 6.52 to 7.00 | 6.00 to 6.30 | B (80%< substrate protein remaining % ≤100%) | A (0% ≤ substrate protein remaining % ≤80%) | A (0% ≤ substrate protein remaining % ≤80%) | B (80%< substrate protein remaining % ≤100%) | B (80%< substrate protein remaining % ≤100%) | A (0% ≤ substrate protein remaining % ≤80%) | – | –
10 | O=C1CCN(N2Cc3cc(CN4CCC(c5cccc(F)c5Cl)CC4)ccc3C2=O)C(=O)N1 [GT-06894, 1-(5-((4-(2-chloro-3-fluorophenyl)piperidin-1-yl)methyl)-1-oxoisoindolin-2-yl)dihydropyrimidine-2,4(1H,3H)-dione] | – | – | B (80%< substrate protein remaining % ≤100%) | A (0% ≤ substrate protein remaining % ≤80%) | B (80%< substrate protein remaining % ≤100%) | B (80%< substrate protein remaining % ≤100%) | B (80%< substrate protein remaining % ≤100%) | A (0% ≤ substrate protein remaining % ≤80%) | 6.00 to 6.30 | 6.30 to 6.52
